Source: patent US20230201113A1, “IMMUNE BOOSTER - SUPPLEMENT TREATMENT KIT AND METHODS OF USE” (priority 2020, published 2023)

System: SARS-CoV-2
Type: in vivo
Details: of the 50 subjects in the control group

Substance: hydroxychloroquine [Placebo + hydroxychloroquine]
- subjects resolved from positive to negative through PCR testing after ten days: 9 subjects
